Results on 37 compounds are retold here after ChEMBL document CHEMBL2150873, “Identification of imidazo-pyrrolopyridines as novel and potent JAK1 inhibitors” (J Med Chem, 2012).

In general, logD refers to lipophilicity at a set pH, counting ionised and neutral species. Read a low logD as a more hydrophilic compound. A word on the half-life: it is how long it takes for the measured level to halve. High values mean slow decline, low ones rapid decline. A word on the Papp A→B: it is the apparent permeability from the apical to the basolateral side of a cell layer. One may read the clearance as the rate of elimination divided by the concentration.

A short description of series [1]: Lipophilicity, log D of the compound after 1 hr by LC/MS/MS analysis at pH 7.2. The format is physicochemical. The conditions noted are these: buffer.
A short description of series [2]: in vitro. The conditions noted are these: human, liver microsomes, t1/2. (Microsomes from liver hold many membrane-bound enzymes, among them those of drug oxidation.)
A short description of series [3]: Apparent permeability from apical to basal side of MDCK cells at 10 uM. The format is ADME, cell-based, Canis lupus familiaris. The conditions noted are these: dog.
Series [4] in a line: Half life in Sprague-Dawley rat hepatocytes at 1 uM by LC/MS/MS analysis. The format is ADME, cell-based, Liver, Hepatocyte.
Series [5] is described as follows: Dose normalized clearance in Sprague-Dawley rat at 1 mg/kg, iv. The format is ADME, organism-based. The arrangement: dose 1 mg/kg, route intravenous. The conditions noted are these: in vivo, read-out: Dose normalized clearance.
Series [6] has as its system Rattus norvegicus. Description: Dose normalized AUC in Sprague-Dawley rat at 5 mg/kg, po. The format is ADME, organism-based. The arrangement: dose 5 mg/kg, route oral. The conditions noted are these: in vivo.
Series [7] relates to Rattus norvegicus. Description: Dose normalized Cmax in Sprague-Dawley rat at 5 mg/kg, po. The format is ADME, organism-based. The arrangement: dose 5 mg/kg, route oral. The conditions noted are these: in vivo.
Series [8] in a line: Dose normalized volume of distribution at steady state in Sprague-Dawley rat at 1 mg/kg, iv and 5 mg/kg, po. The format is ADME, organism-based. The conditions noted are these: in vivo, read-out: Vdss/dose.
Series [9] can be described thus: Dose normalized oral bioavailability in Sprague-Dawley rat at 5 mg/kg. The format is ADME, organism-based. The conditions noted are these: in vivo, read-out: F/dose.
Series [10] has as its system Liver microsomes. The conditions noted are these: human.

As to `COC(=O)N[C@H]1CC[C@H](n2cnc3cnc4[nH]ccc4c32)CC1`, the pH-dependent lipophilicity (logD) at 1 h in series [1] was determined as 1.9. In series [2], the half-life is more than 10 h.

The compound `CC(C)(C)OC(=O)N[C@@H]1CC[C@@H](n2cnc3cnc4[nH]ccc4c32)C1` registered a log distribution coefficient (logD) at 1 h in series [1] of 2.99. Moreover, the apparent permeability from apical to basolateral (Papp A→B) at 10 µM in [3] worked out at 11.2 ×10⁻⁶ cm/s. Besides, the half-life at 1 µM in [4] was 2.2 h. Besides, the clearance in series [5] amounted to 140 mL/min/kg. Moreover, the AUC/dose in series [6] was determined as 1.3 µM·h. In series [7], the Cmax/dose was found to be 1100 nM. The Vd in series [8] was determined as 2.53 L/kg. The bioavailability in series [9] amounted to 73%. In addition, the t1/2 in [10] turned out to be 5.6 h.

Turning to `N#CCC(=O)N1CCC[C@@H](n2cnc3cnc4[nH]ccc4c32)C1`, the pH-dependent lipophilicity (logD) at 1 h in series [1] is 0.39. Besides, the Papp A→B at 10 µM in series [3] is 0.3 ×10⁻⁶ cm/s. Further, the half-life at 1 µM in series [4] is more than 10 h. Besides, in series [5], the clearance worked out at 85 mL/min/kg. Moreover, in series [6], the AUC/dose came out at 0.3 µM·h. The Cmax/dose in series [7] amounted to 50 nM. Besides, the Vd in series [8] is 1.87 L/kg. Further, in [9], the bioavailability was 5%. In series [2], the half-life is 1.4 h.

For the compound `c1ccc(CN2CCC(n3cnc4cnc5[nH]ccc5c43)CC2)cc1`, the logD at 1 h in series [1] worked out at 2.9. In addition, the Papp A→B at 10 µM in series [3] stood at 32.3 ×10⁻⁶ cm/s. The half-life at 1 µM in series [4] was 0.5 h. The clearance in series [5] was 170 mL/min/kg. Moreover, the Cmax/dose in [7] is 40 nM. Further, the Vd in [8] was 6.39 L/kg. For the same compound, the bioavailability in [9] is less than 1%. In series [2], this compound had a half-life of 0.8 h.

The compound `c1ncc(CN2CCC(n3cnc4cnc5[nH]ccc5c43)CC2)cn1` gave a half-life in [2] of 4 h.

Turning to `N#CCC(=O)N1CCC(n2cnc3cnc4[nH]ccc4c32)CC1`, the half-life in [2] is 2 h.

`O=C(c1ccccc1)N1CCC(n2cnc3cnc4[nH]ccc4c32)CC1` had a half-life in [2] of 1.4 h.

Regarding `CC(C)CC(=O)N1CCC(n2cnc3cnc4[nH]ccc4c32)CC1`, the half-life in [2] was 0.5 h.

As for `O=S(=O)(c1ccccc1)N1CCC(n2cnc3cnc4[nH]ccc4c32)CC1`, in series [2], the half-life is 0.7 h.

Take `CS(=O)(=O)N1CCC(n2cnc3cnc4[nH]ccc4c32)CC1`: in series [1], the log distribution coefficient (logD) at 1 h came out at 1.04. Besides, the Papp A→B at 10 µM in [3] turned out to be 1.2 ×10⁻⁶ cm/s. For the same compound, the half-life at 1 µM in [4] is more than 10 h. In series [5], the clearance turned out to be 45 mL/min/kg. The AUC/dose in series [6] was determined as 2.3 µM·h. The compound further yielded a Cmax/dose in series [7] of 2900 nM. In [8], the Vd was found to be 1.46 L/kg. Also, the bioavailability in [9] is 36%. Also, in [2], the half-life is 2.2 h.

The compound `CCN1CCC(n2cnc3cnc4[nH]ccc4c32)CC1` had a half-life in series [2] of 2.5 h.

In turn, `FC(F)(F)CN1CCC(n2cnc3cnc4[nH]ccc4c32)CC1` had a half-life in [2] of 3.8 h.

`N#CCCN1CCC(n2cnc3cnc4[nH]ccc4c32)CC1` returned a logD at 1 h in series [1] of 1.72. For the same compound, the apical-to-basolateral permeability (Papp A→B) at 10 µM in [3] came out at 8.2 ×10⁻⁶ cm/s. Besides, the half-life at 1 µM in series [4] is more than 10 h. Further, in series [5], the clearance amounted to 96 mL/min/kg. This compound also returned an AUC/dose in series [6] of 1.6 µM·h. The compound further gave a Cmax/dose in series [7] of 1800 nM. In addition, in series [8], the Vd was 2.37 L/kg. The bioavailability in series [9] turned out to be 48%. In addition, the half-life in [2] is 7.5 h.

`CN(C)CC(=O)N1CCC(n2cnc3cnc4[nH]ccc4c32)CC1` had a half-life in series [2] of 1.5 h.

`CN1CCC[C@@H]1C(=O)N1CCC(n2cnc3cnc4[nH]ccc4c32)CC1` had a half-life in series [2] of 2.8 h.

In [2], `CN1CCC[C@H]1C(=O)N1CCC(n2cnc3cnc4[nH]ccc4c32)CC1` had a half-life of 4.7 h.

`CC(C)N1CCC[C@H]1C(=O)N1CCC(n2cnc3cnc4[nH]ccc4c32)CC1` gave a half-life in [2] of 1.3 h.

In turn, `CN1CCCC[C@H]1C(=O)N1CCC(n2cnc3cnc4[nH]ccc4c32)CC1` had a half-life in series [2] of 3.5 h. Compared with the last compound, the half-life is about 2.7-fold higher.

As for `CC1(n2cnc3cnc4[nH]ccc4c32)CCNCC1`, the half-life in series [2] is more than 10 h.

Consider `CC1(n2cnc3cnc4[nH]ccc4c32)CCN(Cc2cncnc2)CC1`, for which the half-life in series [2] is 1.6 h.

The compound `CC1(n2cnc3cnc4[nH]ccc4c32)CCN(S(C)(=O)=O)CC1` yielded a logD at 1 h in series [1] of 1.14. Further, in series [3], the Papp A→B at 10 µM was determined as 2.5 ×10⁻⁶ cm/s. In series [4], this compound had a half-life at 1 µM of more than 10 h. In addition, the clearance in series [5] was 82 mL/min/kg. Besides, the AUC/dose in series [6] was 2.3 µM·h. In addition, the Cmax/dose in [7] stood at 800 nM. Further, the Vd in series [8] was 2.72 L/kg. Moreover, in series [9], the bioavailability was found to be 74%. Also, the half-life in [2] was more than 10 h.

The compound `CC1(n2cnc3cnc4[nH]ccc4c32)CCN(CC(F)(F)F)CC1` showed a half-life in [2] of 1.6 h.

Compound `CC1(n2cnc3cnc4[nH]ccc4c32)CCN(CCC#N)CC1` gave a half-life in series [2] of 2.3 h.

In [1], `CC(C)(C)OC(=O)N[C@H]1CC[C@H](n2cnc3cnc4[nH]ccc4c32)CC1` came in with a log distribution coefficient (logD) at 1 h of 3.2. The half-life in [2] was 1.5 h.

As to `N[C@H]1CC[C@H](n2cnc3cnc4[nH]ccc4c32)CC1`, in [1], the log distribution coefficient (logD) at 1 h is -0.44. The Papp A→B at 10 µM in series [3] worked out at 0.2 ×10⁻⁶ cm/s. Also, in series [4], the half-life at 1 µM is more than 10 h. Moreover, the clearance in series [5] worked out at 65 mL/min/kg. The compound further came in with an AUC/dose in series [6] of 0.22 µM·h. In series [7], this compound registered a Cmax/dose of 20 nM. Also, in [8], the Vd was determined as 13.9 L/kg. Besides, the bioavailability in [9] was less than 1%. Also, in series [2], the half-life is 3.7 h.

In series [2], `N[C@H]1CC[C@@H](n2cnc3cnc4[nH]ccc4c32)CC1` had a half-life of 5.5 h.

As to `c1cc2c(ncc3ncn([C@H]4CC[C@H](N5CCOCC5)CC4)c32)[nH]1`, the half-life in [2] is 6.8 h.

In series [2], `c1cc2c(ncc3ncn([C@H]4CC[C@@H](N5CCOCC5)CC4)c32)[nH]1` had a half-life of 3.7 h.

For the compound `CC(C)C(=O)N[C@H]1CC[C@H](n2cnc3cnc4[nH]ccc4c32)CC1`, in series [2], the half-life is 2.7 h.

The compound `c1cc2c(ncc3ncn([C@H]4CC[C@H](NCC5CC5)CC4)c32)[nH]1` gave a half-life in series [2] of 4.7 h.

For the compound `N#CCCN[C@H]1CC[C@H](n2cnc3cnc4[nH]ccc4c32)CC1`, the pH-dependent lipophilicity (logD) at 1 h in series [1] turned out to be 0.97. In series [3], the apparent permeability from apical to basolateral (Papp A→B) at 10 µM was determined as 1.5 ×10⁻⁶ cm/s. In series [4], this compound showed a half-life at 1 µM of 9.8 h. Also, the clearance in series [5] worked out at 120 mL/min/kg. This compound also displayed an AUC/dose in series [6] of 0.7 µM·h. Besides, in [7], the Cmax/dose came out at 600 nM. In series [8], the Vd amounted to 3.96 L/kg. Besides, the bioavailability in series [9] worked out at 28%. Moreover, the half-life in series [2] is 5 h.

For `N#Cc1cccc(CN[C@H]2CC[C@H](n3cnc4cnc5[nH]ccc5c43)CC2)c1`, the half-life in series [2] was 0.8 h.

For the compound `CS(=O)(=O)N[C@H]1CC[C@H](n2cnc3cnc4[nH]ccc4c32)CC1`, the half-life in series [2] is 1.8 h.

Consider `COC(=O)N(C)[C@H]1CC[C@H](n2cnc3cnc4[nH]ccc4c32)CC1`, for which the half-life in series [2] is more than 10 h.

Consider `CC(C)(C)OC(=O)N[C@@H]1CC[C@@H](n2cnc3cnc4[nH]ccc4c32)C1` (racemic), for which, in [2], the half-life is 5.5 h.

With `COC(=O)N[C@@H]1CC[C@@H](n2cnc3cnc4[nH]ccc4c32)C1` (racemic), in series [1], the log distribution coefficient (logD) at 1 h came out at 1.2. In series [2], the half-life was 5.8 h.

`CC(C)(C)OC(=O)N[C@H]1CC[C@@H](n2cnc3cnc4[nH]ccc4c32)C1` (racemic): in [2], the half-life is 1.8 h.
